We go through 22 molecules from patent US9744164B2, “Neuroprotective polyphenol analogs” (Salk Institute for Biological Studies, priority 2011, dated 2017).

Each structure is given as a SMILES string.

One assay deals with HT22 cells. The experiment in a line: in vitro ischemia assay (HT22 cell IAA assay). Conditions: for EC50 in vitro ischemia: HT22 cells, 20 μM IAA 2 hr, viability by MTT after 24 hr, 'no' = no protection; for improvement of neuroprotective activity/potency over Fisetin: relative to Fisetin, in vitro ischemia. Type of assay: cell-based, mouse. Here is the method:
For these studies, cultured HT22 mouse hippocampal cells were used as an in vitro stroke assay. HT22 cells were treated with iodoacetic acid (IAA), an irreversible inhibitor of glyceraldehyde 3-phosphate dehydrogenase (G3PDH) for 2 hr alone or in the presence of varying concentrations of Fisetin. G3PDH is an enzyme of the glycolysis pathway, which catalyzes the synthesis of 1,3-bisphosphoglycerate, a “high energy” intermediate used for the synthesis of ATP. Cell survival was measured using a standard colorimetric MTT (3-(4,5-dimethylthiazol-2-yl)-2,5-diphenyltetrazolium bromide) assay for cell survival MTT is a pale yellow substrate that is cleaved by living cells to yield a dark blue formazan product.
Cytotoxicity assay. Cell viability was determined by a modified version of 3-(4,5-dimethylthiazol-2-yl)-2,5-diphenyl tetrazolium bromide (MTT) assay based on the standard procedure (Maher, et al., Brain Research. (2007), supra). Cells were seeded onto 96-well microtiter plates at a density of 5×10^3 cells per well. For the in vitro ischemia assay, the next day, the medium was replaced with DMEM supplemented with 7.5% DFCS and the cells were treated with 20 μM iodoacetic acid (IAA) alone or in the presence of the different derivatives. After 2 hr the medium in each well was aspirated and replaced with fresh medium without IAA but containing the derivatives. 20 hr later, the medium in each well was aspirated and replaced with fresh medium containing 2.5 μg/ml MTT. After 4 hr of incubation at 37° C., the cells were solubilized with 100 μl of a solution containing 50% dimethylformamide and 20% SDS (pH 4.7). The absorbance at 570 nm was measured on the following day with a microplate reader (Molecular Devices). Results were confirmed by visual inspection of the wells. Controls included compound alone to test for toxicity and compound with no cells to test for interference with the assay chemistry.
For a primary screen, an in vitro ischemia model in combination with the HT22 nerve cell line (Maher, et al., Brain Research. (2007) 1173, 117-125) was chosen. […] To induce ischemia in the HT22 cells we used iodoacetic acid (IAA), a well-known, irreversible inhibitor of the glycolytic enzyme glyceraldehyde 3-phosphate dehydrogenase (G3PDH) (Winkler, et al., Exp. Eye Res. (2003) 76, 715-723). IAA has been used in a number of other studies to induce ischemia in nerve cells (Reshef, et al., Neurosci. Lett. (1997) 238, 37-40; Sperling, et al., Neursci. Lett. (2003) 351, 137-140; Rego, et al., Neurochem. Res. (1999) 24, 351-358; Sigalov, et al,. J. Mol. Neurosci. (2000) 15, 147-154; and Reiner, et al., Neurosci. Lett. (1990) 119, 175-178), including several recent screens for neuroprotective molecules (Biraboneye, et al., J. Med. Chem. (2009) 52 (14), 4358-4369; Biraboneye, et al., Chem. Med. Chem. (2010) 5 (1), 79-85). The changes following IAA treatment of neural cells are very similar to those seen in animal models of ischemic stroke (Lipton, et al., Physiol. Rev. (1999) 79, 1431-1568) and include alterations in membrane potential (Reiner, et al., Neurosci. Lett. (1990) 119, 175-178), breakdown of phospholipids (Taylor, et al., J. Pharmacol. Exp. Ther. (1996) 276, 1224-1231), loss of ATP (Winkler, et al., Exp. Eye Res. (2003) 76, 715-723; Sperling, et al., Neursci. Lett. (2003) 351, 137-140) and an increase in reactive oxygen species (ROS) (Taylor, et al., J. Pharmacol. Exp. Ther. (1996), supra; and Sperling, et al., Neursci. Lett. (2003) 351, 137-140).
The roles of the four different hydroxyl groups in the activity of Fisetin were studied. […] Cell viability was determined after 24 hr by the MTT assay. The ability to maintain GSH (GSH) was determined by treating HT22 cells with different doses of each derivative (1-10 μM) in the presence of 5 mM glutamate. After 24 hr cell extracts were prepared and analyzed for total GSH. Fisetin (10 μM) was used as a positive control. […]

The test system of a further assay is N9 microglial cells. The experiment in a line: anti-inflammatory assay, LPS-induced microglial activation (NO release). The format is cell-based, mouse. The settings on record: bacterial lipopolysaccharide, derivative 1-10 μM, 24 hr. Here is the method: Anti-inflammatory assay. Mouse N9 microglial cells plated in DME with 7.5% DFCS were treated with 10 μg/ml bacterial lipopolysaccharide (Sigma) alone or in the presence of the Fisetin derivatives (1-10 μM) or Fisetin (10 μM) as a positive control. After 24 hr the medium was removed, spun briefly to remove floating cells and 100 μl assayed for NO using 100 μl of the Griess Reagent (Sigma) in a 96 well plate. After incubation for 10 min at room temperature the absorbance at 550 nm was read on a microplate reader.
Three secondary screens allowed assessment of three key activities of Fisetin that are highly relevant to stroke, as well as other neurological disorders: maintenance of glutathione (GSH), the major endogenous cellular antioxidant, inhibition of LPS-induced microglial activation, an indicator of anti-inflammatory activity and PC12 cell differentiation, a measure of neurotrophic activity. All of these activities are relevant to the nerve cell loss seen in stroke (Gelderblom, et al., Stroke. 2009, 40 (5), 1849-1857; Pandya, et al., Cent. Nerv. Syst. Agents. Med. Chem. (2011) Apr. 27; Lewerenz, et al., J. Neurochem. (2010) 113 (2), 502-504). […] To assess GSH maintenance, total intracellular GSH levels after a 24 hr treatment with the compound both in the absence and presence of glutamate, an inducer of GSH loss and oxidative stress (Tan, et al., Curr. Top. Med. Chem. (2001) 1, 497-506; Maher, et al., Free Radical Research. (2006) 40 (10), 1105-1111) was measured Inhibition of LPS-induced microglial activation was determined by treating N9 mouse microglial cells with LPS alone and in the presence of the compounds and assaying NO release into the medium 24 hr later (Zheng, et al., Int. Immunopharmacol. (2008) 8, (3), 484-494). PC12 cell differentiation was determined by treating PC12 cells with the compounds and looking at neurite outgrowth after 24 hr. In all cases, Fisetin was used as a positive control (Sagara, et al., J. Neurochem. (2004) 90, 1144-1155).
The roles of the four different hydroxyl groups in the activity of Fisetin were studied. […] Cell viability was determined after 24 hr by the MTT assay. The ability to maintain GSH (GSH) was determined by treating HT22 cells with different doses of each derivative (1-10 μM) in the presence of 5 mM glutamate. After 24 hr cell extracts were prepared and analyzed for total GSH. Fisetin (10 μM) was used as a positive control. The ability to induce PC12 cell differentiation (PC12 diff'n) was determined by treating PC12 cells in N2 medium with different doses of each derivative (1-10 μM) for 24 hr. Differentiation was assessed by visual inspection with Fisetin (10 μM) as a positive control. Anti-inflammatory activity (microglia) was assessed in N9 microglial cells treated with bacterial lipopolysaccharide alone or in the presence different doses of each derivative (1-10 μM) for 24 hr. Fisetin was used as a positive control. TEAC values, a measure of direct antioxidant activity, were determined using the ABTS+ decolorization assay.

Consider `COc1ccc(-c2cc(OC)c3ccccc3n2)cc1O` [CMS-001, 4-methoxy-2-(3-hydroxy,4-methoxyphenyl)quinoline], for which, in the assay with HT22 cells, the “EC50 in vitro ischemia” value is “no”. Moreover, the “microglia (anti-inflammatory activity)” value in the assay with N9 microglial cells worked out at 69%.

`O=c1cc(-c2ccc(O)c(O)c2)oc2c1ccc1ccccc12` [CMS-02P, reference compound]: the “improvement of neuroprotective activity/potency over Fisetin” value in the assay on HT22 cells is listed as roughly 40 fold. The “microglia (anti-inflammatory activity)” value in the assay with N9 microglial cells came to 55%.

Consider `CCOc1ccc(-c2cc(OC)c3ccccc3n2)cc1OCC` [CMS-004, 4-methoxy-2-(3,4-diethoxyphenyl)quinoline], for which the “EC50 in vitro ischemia” value in the assay on HT22 cells is on record as “no”. The “microglia (anti-inflammatory activity)” value with N9 microglial cells was determined as 76%.

As for `CCOc1ccc(/C=C/C(=O)c2cc(C)c(C)cc2O)cc1OCC` [CMS-013, (E)-3-(3,4-diethoxyphenyl)-1-(2-hydroxy-4,5-dimethylphenyl)prop-2-en-1-one], the “EC50 in vitro ischemia” value in the assay with HT22 cells is given as “no”. In the assay with N9 microglial cells, the “microglia (anti-inflammatory activity)” value stood at 56%.

On to `CCOc1ccc(-c2cc(=O)c3cc(C)c(C)cc3o2)cc1OCC` [CMS-018, 2-(3,4-diethoxyphenyl)-6,7-dimethyl-4H-chromen-4-one], for which the “EC50 in vitro ischemia” value in the assay on HT22 cells is listed as “no”. Besides, in the assay with N9 microglial cells, the “microglia (anti-inflammatory activity)” value was 2%.

Turning to `COc1cc(-c2ccc(O)cc2)nc2ccccc12` [CMS-022, 4-methoxy-2-(4-hydroxyphenyl)quinoline], the “EC50 in vitro ischemia” value in the assay on HT22 cells was “no”. Moreover, in the assay with N9 microglial cells, the “microglia (anti-inflammatory activity)” value was found to be 4%.

Take `Cc1cc2oc(-c3ccc(O)c(O)c3)cc(=O)c2cc1C` [CMS-028, 2-(3,4-dihydroxyphenyl)-6,7-dimethyl-4H-chromen-4-one]: in the assay with HT22 cells (relative to CMS-027), the “enhancement of neuroprotective activity relative to CMS-027” value worked out at 2 fold. Besides, the “microglia (anti-inflammatory activity)” value in the assay with N9 microglial cells was 93%.

In the case of `CCOc1ccc(/C=C/C(=O)c2ccc3ccccc3c2O)cc1OCC` [CMS-032, (E)-3-(3,4-diethoxyphenyl)-1-(1-hydroxynaphthalen-2-yl)prop-2-en-1-one], the “EC50 in vitro ischemia” value with HT22 cells was “no”. Further, the “microglia (anti-inflammatory activity)” value with N9 microglial cells is 5%.

Regarding `CCOc1ccc(-c2cc(=O)c3ccc4ccccc4c3o2)cc1OCC` [CMS-038, 2-(3,4-diethoxyphenyl)-4H-benzo[h]chromen-4-one], the “EC50 in vitro ischemia” value in the assay on HT22 cells is “no”. Besides, the “microglia (anti-inflammatory activity)” value in the assay on N9 microglial cells came out at 2%.

On to `Cc1cc2oc(-c3ccc(O)cc3O)c(O)c(=O)c2cc1C` [CMS-093, 2-(2,4-dihydroxyphenyl)-3-hydroxy-6,7-dimethyl-4H-chromen-4-one], for which the “microglia (anti-inflammatory activity)” value in the assay on N9 microglial cells is recorded as 0%.

Consider `Cc1cc2oc(-c3ccc(O)cc3O)cc(=O)c2cc1C` [CMS-094, 2-(2,4-dihydroxyphenyl)-6,7-dimethyl-4H-chromen-4-one], for which, in the assay on N9 microglial cells, the “microglia (anti-inflammatory activity)” value is recorded as 5%.

In the case of `COc1cc(-c2ccc(N(C)C)cc2)nc2ccccc12` [CMS-109, 4-methoxy-2-(4-dimethylaminophenyl)quinoline], the “microglia (anti-inflammatory activity)” value with N9 microglial cells came to 62%.

In the case of `CC(C)Oc1cc(-c2ccc(N(C)C)cc2)nc2ccccc12` [CMS-112, 4-isopropoxy-2-(4-dimethylaminophenyl)quinoline], the “microglia (anti-inflammatory activity)” value in the assay on N9 microglial cells turned out to be 71%.

Consider `CC(C)Oc1cc(-c2ccc(N3CCCC3)cc2)nc2ccccc12` [CMS-113, 4-isopropoxy-2-(4-(pyrrolidin-1-yl)phenyl)quinoline], for which the “microglia (anti-inflammatory activity)” value with N9 microglial cells came to 67%.

As to `O=c1c(O)c(-c2ccc(N3CCCC3)cc2)oc2c1ccc1ccccc12` [CMS-114, 3-hydroxy-2-(4-(pyrrolidin-1-yl)phenyl)-4H-benzo[h]chromen-4-one], in the assay on N9 microglial cells, the “microglia (anti-inflammatory activity)” value is recorded as 26%.

Regarding `O=c1cc(-c2ccc(N3CCCC3)cc2)oc2c1ccc1ccccc12` [CMS-115, 2-(4-(pyrrolidin-1-yl)phenyl)-4H-benzo[h]chromen-4-one], in the assay with N9 microglial cells, the “microglia (anti-inflammatory activity)” value amounted to 23%.

Take `Cc1cc2oc(-c3ccc(N4CCCC4)cc3)cc(=O)c2cc1C` [CMS-116, 6,7-dimethyl-2-(4-(pyrrolidin-1-yl)phenyl)-4H-chromen-4-one]: in the assay with N9 microglial cells, the “microglia (anti-inflammatory activity)” value is reported as 2%.

For `Cc1cc2oc(-c3ccc(N(C)C)cc3)cc(=O)c2cc1C` [CMS-119, 2-(4-(dimethylamino)phenyl)-6,7-dimethyl-4H-chromen-4-one], the “microglia (anti-inflammatory activity)” value with N9 microglial cells was determined as 8%.

As for `CN(C)c1ccc(-c2cc(=O)c3ccc4ccccc4c3o2)cc1` [CMS-120, 2-(4-(dimethylamino)phenyl)-4H-benzo[h]chromen-4-one], in the assay with N9 microglial cells, the “microglia (anti-inflammatory activity)” value worked out at 35%.

With `O=c1cc(-c2ccc(O)c(O)c2)oc2ccccc12` [PM-001], the “improvement of neuroprotective activity/potency over Fisetin” value in the assay with HT22 cells is given as 6 fold.

Consider `O=c1cc(-c2ccc(O)c(O)c2)oc2ccc3ccccc3c12` [PM-003], for which the “improvement of neuroprotective activity/potency over Fisetin” value with HT22 cells is listed as roughly 40 fold.

As to `Cc1ccc2oc(-c3ccc(O)c(O)c3)c(O)c(=O)c2c1` [PM-010, 2-(3,4-dihydroxyphenyl)-3-hydroxy-6-methyl-4H-chromen-4-one], the “improvement of neuroprotective activity/potency over Fisetin” value in the assay on HT22 cells was 10-100 fold.
